Source: PMC10907358, “Identification of oleic acid as an endogenous ligand of GPR3” (Cell Research, 2024)
“And” between values parts separate entries of the source, which are not always exact repeats. Identical values can stand only once. “Also recorded” adds a separate entry of the source.

Experiments:
GPR3 [1] = biological target: T1, GPR3 (Homo sapiens, UniProt P46089); experiment: Inhibition of OA-induced GPR3 activation, GloSensor cAMP assay in GPR3 stably expressing AD293 cell line; format: cell-based; settings: OA concentration fixed at 300 μM; read-out: IC50 of OA-induced receptor activation
T1 construct: expressed in transfected cells
Experimental: (§1) The GloSensor cAMP assay was performed according to the instructions of Promega. AD293 cells were split into 6-well plate (300,000 cells/mL) and then transfected with the pGloSensor™-22F cAMP plasmid and pcDNA3-GPR3 plasmid by Lipofectamine 2000, at a ratio of 2:1 (μL:μg). 24 h after transfection, cells were split into 96-well plate for another 24 h incubation. After removal of cell medium, 90 μL of 3% v/v (the GloSensor cAMP reagent vs serum-free medium) substrate was added into each well. After 2 h incubation at RT, background measurements were taken, and then 10 μL 10× stock compounds were added for the second measurements of ligand activation via EnVision 2105 (PerkinElmer). Relative cAMP level was calculated by the cAMP level after addition of ligand divided by the cAMP level before addition of ligand (basal level). Stock FAs (i.e., 10–50 mM) were solubilized in DMSO, then diluted in cell culture buffer to designated concentrations and sonicated to ensure that they were evenly distributed in the buffer before being added to cells.
(§2) AD293 cells were split into 6-well plate (300,000 cells/mL), and then transfected with the pGloSensor™-22F cAMP plasmid and the pcDNA6-GPR3-3× FLAG plasmid (WT receptor or the mutants, F120A^3.36, W260A^6.48, L283F^7.39, A201W^5.46, Y280A^7.36, H96A^2.60 and H96A^2.60/Y280A^7.36) by Lipofectamine 2000 at a ratio of 2:1 (μL:μg). […]

GPR3 [2] = biological target: T1, GPR3; experiment: GloSensor cAMP assay in GPR3 stably expressing AD293 cell line (agonist mode); format: cell-based; settings: for Emax compared to Emax of OA: cAMP assay
Experimental: as §1
AD293 cells were split into 6-well plate (300,000 cells/mL), and then transfected with the pGloSensor™-22F cAMP plasmid and the pcDNA6-GPR3-3× FLAG plasmid (WT receptor or the mutants, F120A^3.36, W260A^6.48, L283F^7.39, A201W^5.46, Y280A^7.36, H96A^2.60 and H96A^2.60/Y280A^7.36) by Lipofectamine 2000 at a ratio of 2:1 (μL:μg). Geneticin (2 mg/mL) and blasticidin (20 μg/mL) were used to select colonies that stably express both GPR3 and GloSensor 22F. The cell culture medium containing antibiotics was changed every 2 days till well-separated colonies appeared. Then individual single colony was picked by a small piece of sterilized filter paper soaked with trypsin and separately cultured in a single well of 24-well plate. At least 24 candidate colonies were selected for each mutant and WT. After several days of culture, each colony was triplicated. One of the triplicates was used for western blot analysis, another for the GloSensor cAMP assay, and the remaining one was stored for staining. The colonies with top scores in both expression (western blot) and functional assay were selected as the representative colonies for each mutant or WT for further analysis.

GPR6 = biological target: T2, GPR6 (Homo sapiens, UniProt P46095); experiment: GloSensor cAMP assay in GPR6 stably expressing AD293 cell line; format: cell-based; settings: lipid concentration 300 μM
T2 construct: FLAG; expressed in transfected cells

GPR120 = system: GPR120; parameters: method as in PMID 36862765; settings: cited from earlier work
[3] = system: Gs/cAMP/PKA signaling in iBAT; experiment: Ex vivo iBAT of WT mice, p-PKA substrate immunoblot; format: cell-based, mouse; settings: up to 4 h
Experimental: iBAT was isolated from C57BL/6N mice at 4-6 weeks old and cut into 10 mg pieces. […] Another group of iBAT pieces were incubated in DMEM medium at 4 °C, and treated with different doses of OA (0 mM, 1 mM, 5 mM) for 4 h. OA (Sigma, O1008) was dissolved in serum-free DMEM (Gibco, high glucose, 12100046) by using an ultrasonic cleaner at 40 °C for 10 min.

[4] = system: Gs/cAMP/PKA signaling in Gpr3 KO iBAT; experiment: Ex vivo iBAT of Gpr3 KO mice, p-PKA substrate immunoblot; format: cell-based, mouse; settings: OA 1 mM, 4 h
Experimental: iBAT was isolated from C57BL/6N mice at 4–6 weeks old and cut into 10 mg pieces. 10 mg iBAT was further cut into four pieces.[67] iBAT pieces were incubated in Dulbecco’s modified eagle medium (DMEM) at 4 °C, and treated with OA (1 mM) for different times (0 h, 1 h, 2 h, and 4 h). Another group of iBAT pieces were incubated in DMEM medium at 4 °C, and treated with different doses of OA (0 mM, 1 mM, 5 mM) for 4 h. OA (Sigma, O1008) was dissolved in serum-free DMEM (Gibco, high glucose, 12100046) by using an ultrasonic cleaner at 40 °C for 10 min. p-(S/T)PKA substrate and GAPDH levels were measured by immunoblotting, and quantified by densitometry using ImageJ. iBAT was also isolated from WT and Gpr3 KO mice at 4–6 weeks old and cut into 10 mg pieces. 10 mg iBAT was further cut into four pieces. iBAT pieces were incubated in DMEM medium at 4 °C, and treated with or without OA (1 mM) for 4 h. p-(S/T)PKA substrate and GAPDH levels were measured by immunoblotting, and quantified by ImageJ.
To generate Gpr3 complete KO mice rapidly, we performed one-step complete knockout based on CRISPR/Cas9 systems, which was described previously.[68] Briefly, four adjacent single-guide RNAs (sgRNAs) (spaced 50–100 bp apart; sgRNA1: […]; sgRNA2: […]; sgRNA3: […]; sgRNA4: […]) that target key exon of Gpr3 were designed. […]

GPR3 L283F mutant = biological target: T3, GPR3 L283F mutant (Homo sapiens, UniProt P46089, L283F); experiment: OA dose-response, GloSensor cAMP assay, AD293 stably expressing GPR3 L283F mutant; format: cell-based; settings: Table S3, L283F
T3 construct: expressed in transfected cells
Experimental: as §1, §2

GPR3 H96A mutant = biological target: T4, GPR3 H96A mutant (Homo sapiens, UniProt P46089, H96A); experiment: OA dose-response, GloSensor cAMP assay, AD293 stably expressing GPR3 H96A mutant; format: cell-based; settings: Table S3, H96A
T4 construct: expressed in transfected cells
Experimental: as §1, §2

GPR3 A201W mutant = biological target: T5, GPR3 A201W mutant (Homo sapiens, UniProt P46089, A201W); experiment: OA dose-response, GloSensor cAMP assay, AD293 stably expressing GPR3 A201W mutant; format: cell-based; settings: Table S3, A201W
T5 construct: expressed in transfected cells
Experimental: as §1, §2

GPR3 W260A mutant = biological target: T6, GPR3 W260A mutant (Homo sapiens, UniProt P46089, W260A); experiment: OA dose-response, GloSensor cAMP assay, AD293 stably expressing GPR3 W260A mutant; format: cell-based; settings: W260A stable line
T6 construct: expressed in transfected cells
Experimental: as §1, §2

GPR3 Y280A mutant = biological target: T7, GPR3 Y280A mutant (Homo sapiens, UniProt P46089, Y280A); experiment: OA dose-response, GloSensor cAMP assay, AD293 stably expressing GPR3 Y280A mutant; format: cell-based; settings: Table S3, Y280A
T7 construct: expressed in transfected cells
Experimental: as §1, §2

GPR3 H96A/Y280A mutant = biological target: T8, GPR3 H96A/Y280A mutant (Homo sapiens, UniProt P46089, H96A/Y280A); experiment: OA dose-response, GloSensor cAMP assay, AD293 stably expressing GPR3 H96A/Y280A mutant; format: cell-based; settings: H96A/Y280A stable line
T8 construct: expressed in transfected cells
Experimental: as §1, §2

GPR12 = biological target: T9, GPR12 (Homo sapiens, UniProt P47775); experiment: GloSensor cAMP assay in GPR12 stably expressing AD293 cell line; format: cell-based; settings: lipid concentration 300 μM
T9 construct: FLAG; expressed in transfected cells
T9 sequence (P47775 1-334): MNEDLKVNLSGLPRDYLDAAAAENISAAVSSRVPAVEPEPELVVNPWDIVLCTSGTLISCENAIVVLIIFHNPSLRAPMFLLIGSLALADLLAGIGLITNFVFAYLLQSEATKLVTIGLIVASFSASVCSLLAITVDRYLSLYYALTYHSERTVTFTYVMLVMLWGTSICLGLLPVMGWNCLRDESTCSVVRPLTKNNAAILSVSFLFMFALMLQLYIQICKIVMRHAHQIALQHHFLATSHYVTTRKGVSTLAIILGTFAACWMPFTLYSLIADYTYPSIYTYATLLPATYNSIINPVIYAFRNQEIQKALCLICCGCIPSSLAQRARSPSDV

GPR3 F120A mutant = biological target: T10, GPR3 F120A mutant (Homo sapiens, UniProt P46089, F120A); experiment: OA dose-response, GloSensor cAMP assay, AD293 stably expressing GPR3 F120A mutant; format: cell-based; settings: Table S3, F120A
T10 construct: expressed in transfected cells
Experimental: as §1, §2

[5] = parameters: method as in PMID 7722695, PMID 18059405; settings: feeding rats with OA; cited from earlier work
[6] = Table S2, relative cAMP level, at 500 μM (FA 12:0, 16:1, 18:0, OEA 18:1, OLM 18:1), 450 μM (FA 18:1), 400 μM (FA 16:0), 300 μM (FA 22:0, 18:2), 100 μM (FAME 18:0, FAEE 18:0, lysophospholipids), 3 μM (LTB4)
[7] = cAMP induction, GPR3 stably expressing AD293
[8] = WT iBAT at 4 °C, lipid 1 mM (OA also 5 mM)
[9] = Table S3, WT receptor stable line, OA dose-response

T1 sequence (P46089 whole entry): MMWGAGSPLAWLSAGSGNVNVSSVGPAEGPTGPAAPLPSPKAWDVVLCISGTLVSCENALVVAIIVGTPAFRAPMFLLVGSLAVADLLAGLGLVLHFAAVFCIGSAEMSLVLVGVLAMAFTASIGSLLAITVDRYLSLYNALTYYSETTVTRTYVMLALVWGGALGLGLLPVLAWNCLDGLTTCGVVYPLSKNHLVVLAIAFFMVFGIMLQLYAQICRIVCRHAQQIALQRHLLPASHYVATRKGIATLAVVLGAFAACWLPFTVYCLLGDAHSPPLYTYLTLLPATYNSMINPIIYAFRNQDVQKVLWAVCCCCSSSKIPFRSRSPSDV
T10 sequence (P46089 whole entry F120A): as the sequence (P46089 whole entry) above, with F120A counted along it
T4 sequence (P46089 whole entry H96A): as the sequence (P46089 whole entry) above, with H96A counted along it
T7 sequence (P46089 whole entry Y280A): as the sequence (P46089 whole entry) above, with Y280A counted along it
T5 sequence (P46089 whole entry A201W): as the sequence (P46089 whole entry) above, with A201W counted along it
T8 sequence (P46089 whole entry H96A/Y280A): as the sequence (P46089 whole entry) above, with H96A, Y280A counted along it
T2 sequence (P46095 whole entry, species assumed): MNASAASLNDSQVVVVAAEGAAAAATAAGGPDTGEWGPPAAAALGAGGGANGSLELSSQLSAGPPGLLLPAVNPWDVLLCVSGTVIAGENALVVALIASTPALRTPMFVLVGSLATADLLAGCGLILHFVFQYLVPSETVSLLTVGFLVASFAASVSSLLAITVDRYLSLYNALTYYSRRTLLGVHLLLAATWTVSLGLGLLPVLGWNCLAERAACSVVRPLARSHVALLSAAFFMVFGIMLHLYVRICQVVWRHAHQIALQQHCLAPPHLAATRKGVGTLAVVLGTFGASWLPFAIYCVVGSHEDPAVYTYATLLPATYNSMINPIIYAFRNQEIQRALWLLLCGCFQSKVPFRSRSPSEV
T6 sequence (P46089 whole entry W260A): as the sequence (P46089 whole entry) above, with W260A counted along it
T3 sequence (P46089 whole entry L283F): as the sequence (P46089 whole entry) above, with L283F counted along it

With CC(C)Oc1cc(Cl)ccc1CNc1cc(-c2ccccc2)nc2ncnn12 [AF64394] the IC50 (GPR3 [1]) was 0.171 µM.

In the case of CCCCCCCCCCCCCCCCCCCCCC(=O)O [BEH, behenic acid], the “cAMP induction activity (in words)” value (GPR3 [2]; GPR3 stably expressing AD293) is reported as “no activity at all; also recorded: failed to activate the receptor” and the maximum response (GPR3 [2]; [6]) is reported as 1.0.

For c1ccc2c(c1)[I+]c1ccccc1-2 [DPI, diphenyleneiodonium chloride], the “Emax compared to Emax of OA” value (GPR3 [2]) was “higher Emax”.

With CCCCCCCCCCCCCCCCCC(=O)OCC [ETS, ethyl stearate] the “cAMP induction activity (in words)” value (GPR3 [2]; GPR3 stably expressing AD293) was “completely abolished receptor activation; also recorded: failed to activate the receptor” and the maximum response (GPR3 [2]; [6]) was 0.6.

With CCCCCCCCCCCC(=O)O [LAU, lauric acid] the “cAMP induction activity (in words)” value (GPR3 [2]; GPR3 stably expressing AD293) was “fully activate GPR3”, the maximum response (GPR3 [2]; [6]) was 204.5 and the “Emax compared to Emax of OA” value (GPR3 [2]) was “higher Emax than OA”. The EC50 (GPR3 [2]; [7]) was 320 µM and the “GPR6 activation (in words)” value (GPR6) was “strongly activated GPR6”.

In the case of CCCCC/C=C\C/C=C\CCCCCCCC(=O)O [LIN, Linoleic acid], the “cAMP induction activity (in words)” value (GPR3 [2]; GPR3 stably expressing AD293) is listed as “failed to activate the receptor; also recorded: almost no activity”, the maximum response (GPR3 [2]; [6]) is listed as 2.9 and the EC50 (GPR120) is listed as 57.4 µM. The “Gs/cAMP/PKA signaling (phosphorylation of PKA substrates)” value [3, 8] was “neither STE nor LIN induced Gs/cAMP/PKA signaling”.

With CCCCC/C=C\C[C@@H](O)/C=C/C=C/C=C\[C@@H](O)CCCC(=O)O [LTB4, leukotriene B4] the “cAMP induction activity (in words)” value (GPR3 [2]; GPR3 stably expressing AD293) was “failed to activate GPR3” and the maximum response (GPR3 [2]; [6]) was 0.8.

In the case of CCCCCCCCCCCCCCCCCC(=O)OC [MES, methyl stearate], the “cAMP induction activity (in words)” value (GPR3 [2]; GPR3 stably expressing AD293) is reported as “completely abolished receptor activation; also recorded: failed to activate the receptor” and the maximum response (GPR3 [2]; [6]) is reported as 0.9.

With CCCCCCCC/C=C\CCCCCCCC(=O)O [OA, oleic acid] the “induction of Gs/cAMP/PKA signaling by OA” value [4] was “completely blocked”, the maximum response (GPR3 L283F mutant) was 39.13 and the EC50 (GPR3 H96A mutant) was 255 µM. The maximum response (GPR3 H96A mutant) was 83.68, the EC50 (GPR3 A201W mutant) was 291 µM and the maximum response (GPR3 A201W mutant) was 157.9. For the same compound, the maximum response (GPR3 [2]; [6]) was 164.1, the EC50 (GPR3 [2]; [9]) was 293 µM and the maximum response (GPR3 [2]; [9]) was 186.6. The EC50 (GPR3 [2]; [7]) was 299 µM and 300 µM, the “response to OA (in words)” value (GPR3 W260A mutant) was “completely lost their response to OA” and the EC50 (GPR120) was 40.6 µM. For the same compound, the EC50 (GPR3 Y280A mutant) was 322 µM, the maximum response (GPR3 Y280A mutant) was 61.91 and the “Emax compared to WT receptor (in words)” value (GPR3 H96A/Y280A mutant) was “lower Emax than the WT receptor”. The “Gs/cAMP/PKA signaling (phosphorylation of PKA substrates)” value [3, 8] was “robust increase of Gs/cAMP/PKA signaling; also recorded: substantially increased Gs/cAMP/PKA signaling”, the “Gs/cAMP/PKA signaling (phosphorylation of PKA substrates)” value ([3]; WT iBAT at 37 °C, OA 1 mM, 5 mM) was “to a lesser extent than in the samples treated at 4 °C” and the “GPR12 activation (in words)” value (GPR12) was “strongest effect on GPR12 activation”. The EC50 (GPR3 F120A mutant) was 252 µM, the maximum response (GPR3 F120A mutant) was 23.67 and the “thermogenesis and body weight” value [5] was “induces thermogenesis and reduces body weight”.
